According to patent US20210102239A1, “METHOD FOR DETERMINING BACTERIAL NUMBER IN SPECIMEN” (MITSUI CHEMICALS, INC., priority 2017, published 2021):

Columns and labels:
[1] = system: S. pneumoniae; assay: drug sensitivity test of the pathogenic bacterium from blood culture; format: cell-based, Streptococcus pneumoniae; conditions: Case 2, isolate from blood specimen sampled before antibiotic treatment
Method: (§1) According to Step 1 to Step 4 of Example 1, a pathogenic bacterium rapid quantification test using sepsis patient's specimens (EDTA blood collection tube, 2 mL) was carried out. […] Blood was sampled before treatment with an antibiotic (pretreatment), and 24 hours (after 24 hrs.) and 72 hours (after 72 hrs.) after administration of the antibiotic. At the three points, a pathogenic bacterium rapid quantification test was carried out together with measurement of body temperature, white blood cell count, CRP, presepsin and IL-6. Furthermore, a blood specimen sampled before the antibiotic treatment was subjected to a blood culture method to identify a pathogenic bacterium and subjected to a drug sensitivity test. General information about individual cases is as follows.

[2] = system: H. influenzae; assay: as above; format: cell-based, Haemophilus influenzae; conditions: Case 2, isolate from blood specimen sampled before antibiotic treatment
Method: as §1

[3] = system: K. oxytoca; assay: as above; format: cell-based, Klebsiella oxytoca; conditions: Case 2, isolate from blood specimen sampled before antibiotic treatment
Method: as §1

[4] = system: Klebsiella oxytoca, Haemophilus influenzae, Streptococcus pneumoniae; assay: Case 2: pathogen count (nested PCR) and biomarkers in blood before/after antibiotic treatment; format: in vivo, human (sepsis patient); conditions: for BT (body temperature): pretreatment 39.2; for WBC: pretreatment 108.8; for CRP: pretreatment 150.3; for Presepsin: pretreatment 5379; for IL-6: pretreatment 122000; for Pathogen (Ave): pretreatment 175270
Method: (§2) First, bacterial cells were collected from a blood specimen by centrifuging the whole blood at a low rate of 100×g for 5 minutes to separate blood cells, centrifuging the resultant supernatant (containing buffy coat) at a high rate of 20,000×g for 10 minutes to obtain a pellet.
(§3) Using DNA of a pathogenic bacterium taken from the blood specimen according to the method of Step 1 as a template, nested PCR (1st PCR: 30 cycle→100 double dilution→2nd PCR: 30 to 35 cycles) is carried out. The bacterial cells in patient specimens vary in a wide range from very small to large number. Since it is difficult to accurately determine the bacterial number in a single cycle of PCR, nested PCR methods are used in combination.
(§4) Subsequently, using pathogenic bacterium DNA of Step 1 as a template, nested PCR was carried out together with a quantification control in the conditions described in Step 2. In the 1st PCR and 2nd PCR for quantification, the following bacterial universal primer (primer for detecting almost all bacteria) was used. The target region of the bacterial universal primer is a bacterial conserved region (base sequence region common in almost all bacteria) of a 16S ribosomal RNA gene. A predetermined bacterium is quantified by a bacterial species-specific primer; however, a pathogenic bacterium is not identified in the early stage of sepsis. Because of this, a bacterial species-specific primer cannot be used. Accordingly, unless a bacterial universal primer is used, an unidentified bacterium cannot be detected.
(§5) As mentioned above, E. coli DNA samples of three different concentrations and of a known bacterial number were used as quantification controls. Based on the data of three quantification controls different in concentration, a calibration curve was prepared. Based on bacterial DNA extracted from a patient specimen, the number of pathogenic bacterial cells was determined. Since the number of bacterial cells was obtained as an E. coli cell-number equivalent used as a quantification control, the number of bacterial cells in a specimen can be more easily, rapidly and accurately determined.
as §1

[5] = system: Escherichia coli; assay: drug sensitivity test of the pathogenic bacterium from blood culture; format: cell-based; conditions: isolate from blood specimen sampled before antibiotic treatment
Method: as §1
According to Step 1 to Step 5 of Example 1, a pathogenic bacterium rapid identification/quantification test using sepsis patient's specimens (EDTA blood collection tube, 2 mL) was carried out. […] Blood was sampled before treatment with an antibiotic (pretreatment), and 24 hours (after 24 hrs.) and 72 hours (after 72 hrs.) after administration of the antibiotic. At the three points, a pathogenic bacterium rapid identification/quantification test was carried out together with measurement of body temperature, white blood cell count, CRP, presepsin and IL-6. […]

[6] = system: Escherichia coli; assay: Case 1: pathogen count (nested PCR) and biomarkers in blood before/after antibiotic treatment; format: in vivo, human (sepsis patient); conditions: for BT (body temperature): pretreatment 37.0; for IL-6: pretreatment 122; for CRP: pretreatment 185.9; for WBC: pretreatment 285.6; for Presepsin: pretreatment 1298; for Pathogen (Ave): pretreatment 1314
Method: as §2, §3, §4, §5, §1
Case 1: • person, sepsis associated with urinary tract infection • blood culture/urine culture: Escherichia coli • antibiotic substance: meropenem (sensitive)

[7] = system: Escherichia coli; assay: Case 4: pathogen identification/quantification and biomarkers in blood before/after antibiotic treatment; format: in vivo, human (sepsis patient); conditions: for BT (body temperature): pretreatment 37.0; for IL-6: pretreatment 122; for CRP: pretreatment 185.9; for WBC: pretreatment 285.6; for Presepsin: pretreatment 1298; for Pathogen (Ave): pretreatment 1314
Method: as §2, §3, §4, §5
(§6) For the reason, it is necessary to make a correction based on the operon copy number per bacterium species in order to more accurately determine bacterial number. Since identification and qualification of a pathogenic bacterium are carried out concurrently in Step 3 and Step 4, the number of pathogenic bacterial cells can be corrected based on 16S ribosomal RNA operon copy number of the bacterium identified to computationally obtain the correct number of bacterial cells.
as §1, with “Step 5” for “Step 4”, “rapid identification/quantification” for “rapid quantification”
Case 4: • person, sepsis associated with urinary tract infection • Tm mapping method: Escherichia coli (Dist. value=0.29) • blood culture/urine culture: Escherichia coli • antibiotics substance: meropenem (sensitive)

[8] = system: Enterobacter aerogenes; assay: drug sensitivity test of the pathogenic bacterium from blood culture; format: cell-based; conditions: Case 7, isolate from blood specimen sampled before antibiotic treatment
Method: as §1, with “Step 5” for “Step 4”, “rapid identification/quantification” for “rapid quantification”

[9] = system: Escherichia coli; assay: Case 3: pathogen count (nested PCR) and biomarkers in blood before/after antibiotic treatment; format: in vivo, human (sepsis patient); conditions: for CRP: pretreatment 1.1; for BT (body temperature): pretreatment 39.6; for WBC: pretreatment 168.3; for Presepsin: pretreatment 343; for IL-6: pretreatment 678; for Pathogen (Ave): pretreatment 3600
Method: as §2, §3, §4, §5, §1
Case 3: • person, sepsis associated with urinary tract infection • blood culture/urine culture: Escherichia coli • antibiotics substance: tazobactam/piperacillin (sensitive)

[10] = system: Streptococcus dysgalactiae; assay: Case 6: pathogen identification/quantification and biomarkers in blood before/after antibiotic treatment; format: in vivo, human (sepsis patient); conditions: for BT (body temperature): pretreatment 39.7; for WBC: pretreatment 89.5; for IL-6: pretreatment 115; for CRP: pretreatment 136.1; for Presepsin: pretreatment 1373; for Pathogen (Ave): pretreatment 2651
Method: as §2, §3, §4
(§7) As mentioned above, E. coli DNA samples of three different concentrations and of a known bacterial number were used as quantification controls. Based on the data of three quantification controls different in concentration, a calibration curve was prepared. Based on bacterial DNA extracted from a patient specimen, the number of pathogenic bacterial cells was determined.
as §6
as §1, with “Step 5” for “Step 4”, “rapid identification/quantification” for “rapid quantification”

[11] = system: Enterobacter aerogenes; assay: Case 7: pathogen identification/quantification and biomarkers in blood before/after antibiotic treatment; format: in vivo, human (sepsis patient); conditions: for BT (body temperature): pretreatment 38.8; for WBC: pretreatment 59.4; for CRP: pretreatment 72.3; for Presepsin: pretreatment 1322; for Pathogen (Ave): pretreatment 41083; for IL-6: pretreatment 238000
Method: as §2, §3, §4, §7, §6
as §1, with “Step 5” for “Step 4”, “rapid identification/quantification” for “rapid quantification”

[12] = system: Escherichia coli; assay: Case 5: pathogen identification/quantification and biomarkers in blood before/after antibiotic treatment; format: in vivo, human (sepsis patient); conditions: for CRP: pretreatment 1.1; for BT (body temperature): pretreatment 39.6; for WBC: pretreatment 168.3; for Presepsin: pretreatment 343; for IL-6: pretreatment 678; for Pathogen (Ave): pretreatment 3600
Method: as §2, §3, §4, §7, §6
as §1, with “Step 5” for “Step 4”, “rapid identification/quantification” for “rapid quantification”

## CO/N=C(\C(=O)N[C@@H]1C(=O)N2C(C(=O)[O-])=C(C[N+]3(C)CCCC3)CS[C@H]12)c1csc(N)n1 [cefepim]
[1]
  drug sensitivity: medium-level sensitivity
[2]
  drug sensitivity: sensitive
[3]
  drug sensitivity: sensitive
[4]; Case 2, 24 h after antibiotic
  BT (body temperature): 36.4 °C
  WBC: 418.1 × 100/μL
  CRP: 240.0 mg/L
  Presepsin: 6202 ng/mL
  IL-6: 7400 pg/mL
  Pathogen (Ave): 31453 cells/ml
[4]; Case 2, 72 h after antibiotic
  BT (body temperature): 36.3 °C
  WBC: 348.7 × 100/μL
  CRP: 145.5 mg/L
  Presepsin: 6060 ng/mL
  IL-6: 168 pg/mL
  Pathogen (Ave): 2066 cells/ml

## C[C@@H](O)[C@H]1C(=O)N2C(C(=O)O)=C(S[C@@H]3CN[C@H](C(=O)N(C)C)C3)[C@H](C)[C@H]12 [meropenem]
[5]
  drug sensitivity: sensitive
[6]; Case 1, 24 h after antibiotic
  BT (body temperature): 37.9 °C
  IL-6: 85.8 pg/mL
  CRP: 223.1 mg/L
  WBC: 301.4 × 100/μL
  Presepsin: 1729 ng/mL
  Pathogen (Ave): 248 cells/ml
[6]; Case 1, 72 h after antibiotic
  BT (body temperature): 37.2 °C
  IL-6: 20.7 pg/mL
  CRP: 86.4 mg/L
  WBC: 98.7 × 100/μL
  Presepsin: 1138 ng/mL
  Pathogen (Ave): 0 cells/ml
[7]; Case 4, 24 h after antibiotic
  BT (body temperature): 37.9 °C
  IL-6: 85.8 pg/mL
  CRP: 223.1 mg/L
  WBC: 301.4 × 100/μL
  Presepsin: 1729 ng/mL
  Pathogen (Ave): 248 cells/ml
[7]; Case 4, 72 h after antibiotic
  BT (body temperature): 37.2 °C
  IL-6: 20.7 pg/mL
  CRP: 86.4 mg/L
  WBC: 98.7 × 100/μL
  Presepsin: 1138 ng/mL
  Pathogen (Ave): 0 cells/ml

## tazobactam/piperacillin
[8]
  drug sensitivity: sensitive
[5]
  drug sensitivity: sensitive
[9]; Case 3, 24 h after antibiotic
  CRP: 9.3 mg/L
  BT (body temperature): 36.6 °C
  WBC: 61.4 × 100/μL
  Presepsin: 267 ng/mL
  IL-6: 5 pg/mL
  Pathogen (Ave): 2102 cells/ml
[9]; Case 3, 72 h after antibiotic
  CRP: 2.9 mg/L
  BT (body temperature): 37.2 °C
  WBC: 49.2 × 100/μL
  Presepsin: 501 ng/mL
  IL-6: 6.3 pg/mL
  Pathogen (Ave): 2 cells/ml
[10]; Case 6, 24 h after antibiotic
  BT (body temperature): 37.0 °C
  WBC: 77.3 × 100/μL
  IL-6: 85.3 pg/mL
  CRP: 139.8 mg/L
  Presepsin: 854 ng/mL
  Pathogen (Ave): 308 cells/ml
[10]; Case 6, 72 h after antibiotic
  BT (body temperature): 37.2 °C
  WBC: 54.1 × 100/μL
  IL-6: 59.4 pg/mL
  CRP: 43.2 mg/L
  Presepsin: 708 ng/mL
  Pathogen (Ave): 20 cells/ml
[11]; Case 7, 24 h after antibiotic
  BT (body temperature): 38.4 °C
  WBC: 258.5 × 100/μL
  CRP: 107 mg/L
  Presepsin: 1516 ng/mL
  Pathogen (Ave): 19156 cells/ml
  IL-6: 41700 pg/mL
[11]; Case 7, 72 h after antibiotic
  BT (body temperature): 36.4 °C
  WBC: 198.2 × 100/μL
  CRP: 241.4 mg/L
  Presepsin: 2473 ng/mL
  Pathogen (Ave): 59 cells/ml
  IL-6: 176 pg/mL
[12]; Case 5, 24 h after antibiotic
  CRP: 9.3 mg/L
  BT (body temperature): 36.6 °C
  WBC: 61.4 × 100/μL
  Presepsin: 267 ng/mL
  IL-6: 5 pg/mL
  Pathogen (Ave): 2102 cells/ml
[12]; Case 5, 72 h after antibiotic
  CRP: 2.9 mg/L
  BT (body temperature): 37.2 °C
  WBC: 49.2 × 100/μL
  Presepsin: 501 ng/mL
  IL-6: 6.3 pg/mL
  Pathogen (Ave): 2 cells/ml
